Like-named read-outs stand apart in the source and are kept apart here.
Key:
peach leaves = conditions: 3-4% decyl alcohol; cited from earlier work
Fuji apple variety [1] = assay: Flower-thinning effect of one alcohol species formulations (Test Example 1); type: in vivo; conditions: for Number of lateral fruits set: 20 days post-spraying; for Lateral flower-thinning rate (%) / Total flower-thinning rate (%): relative to untreated group; for Flower-thinning contribution rate in IAP-108: spray concentration 0.2%, effect × content (0.4 or 0.6)
Fuji apple variety [2] = conditions: in vivo; for Phytotoxicity: Fuji, apple
Procedure: Each of the chemical solutions was sprayed with a DIA (FURUPLA DIA SPRAY 570, Furupla Co., Ltd.) handy spray in both right and left directions in a sufficient amount to run along each flower cluster.
In this test, treatment (spraying) was performed when lateral flowers was in full bloom (Apr. 25, 2014), and phytotoxicity was assessed by visual scoring on day 4 after post-spraying (April 29) and day 11 after post-spraying (May 6). The flower-thinning effect was measured by recording the number of young fruits set without flower thinning on 20 days post-spraying (May 15). The flower thinning activity relative to that of the untreated group was presented as (1−number of young fruits in treated group/number of young fruits in untreated group)×100. This test was designed to have 8 replications with one flower cluster as one replication. Fertilization of the apple flowers was induced by natural fertilization.

honeybees [3] = conditions: active ingredient dissolved in acetone
Procedure: In the contact toxicity test for honeybees, healthy honeybees bred in an outdoor beekeeping system were acclimated in a breeding cage, and then anesthetized with CO2. […] This treatment was repeated 3 times for ten honeybees per test cage, and the honeybees were bred at 25° C. under dark conditions for 72 hours. The lethality of each aliphatic alcohol was measured.

honeybees [4] = assay: Acute contact toxicity to honeybees, active ingredients in acetone (Test Example 4); type: in vivo; conditions: for Lethality (%): 72 hours after treatment
[5] = treatment dose 200 μg per honeybee in acetone

CCCCCCCCCCO [1-Decanol, 1-decanol]
Phytotoxicity to peach leaves (peach leaves): significant phytotoxicity
Number of central fruits set (Fuji apple variety [1]; concentration 0.01%): 6
Total number of fruits set (Fuji apple variety [1]; concentration 0.01%): 22
Number of lateral fruits set (Fuji apple variety [1]; concentration 0.01%): 16
Lateral flower-thinning rate (%) (Fuji apple variety [1]; concentration 0.01%): 16%
Total flower-thinning rate (%) (Fuji apple variety [1]; concentration 0.01%): 12%
Number of central fruits set (Fuji apple variety [1]; concentration 0.05%): 5
Total number of fruits set (Fuji apple variety [1]; concentration 0.05%): 22
Number of lateral fruits set (Fuji apple variety [1]; concentration 0.05%): 17
Lateral flower-thinning rate (%) (Fuji apple variety [1]; concentration 0.05%): 11%
Total flower-thinning rate (%) (Fuji apple variety [1]; concentration 0.05%): 12%
Number of central fruits set (Fuji apple variety [1]; concentration 0.2%): 5
Total number of fruits set (Fuji apple variety [1]; concentration 0.2%): 15
Number of lateral fruits set (Fuji apple variety [1]; concentration 0.2%): 10
Lateral flower-thinning rate (%) (Fuji apple variety [1]; concentration 0.2%): 47%
Total flower-thinning rate (%) (Fuji apple variety [1]; concentration 0.2%): 40%
Flower-thinning contribution rate in IAP-108 (Fuji apple variety [1]): 28.2%
Phytotoxicity (Fuji apple variety [2]): 0
Phytotoxicity (in words) (Fuji apple variety [2]): no phytotoxicity
Lethality (%) (honeybees [3]; treatment dose 50 μg): 70%
Comparative contact toxicity to honeybees (in words) (honeybees [4]; among aliphatic alcohols and versus fatty acids of same carbon number): more toxic than 1-decanoic acid
Comparative contact toxicity to honeybees (in words) (honeybees [4]; in vivo): highest lethality
Lethality (%) (honeybees [4]; treatment dose 50 μg per honeybee in acetone): 70%
Lethality (%) (honeybees [4]; [5]): 100%

CCCCCCO [1-Hexanol, 1-hexanol]
Number of central fruits set (Fuji apple variety [1]; concentration 0.2%): 6
Total number of fruits set (Fuji apple variety [1]; concentration 0.2%): 15
Number of lateral fruits set (Fuji apple variety [1]; concentration 0.2%): 9
Lateral flower-thinning rate (%) (Fuji apple variety [1]; concentration 0.2%): 53%
Total flower-thinning rate (%) (Fuji apple variety [1]; concentration 0.2%): 40%
Number of central fruits set (Fuji apple variety [1]; concentration 1%): 5
Total number of fruits set (Fuji apple variety [1]; concentration 1%): 10
Number of lateral fruits set (Fuji apple variety [1]; concentration 1%): 5
Lateral flower-thinning rate (%) (Fuji apple variety [1]; concentration 1%): 74%
Total flower-thinning rate (%) (Fuji apple variety [1]; concentration 1%): 60%
Phytotoxicity (Fuji apple variety [2]): 0
Lethality (%) (honeybees [3]; treatment dose 100 μg): 3.3%
Lethality (%) (honeybees [4]; [5]): 6.7%

CCCCCCCCO [1-Octanol, 1-octanol]
Number of central fruits set (Fuji apple variety [1]; concentration 0.2%): 7
Total number of fruits set (Fuji apple variety [1]; concentration 0.2%): 13
Number of lateral fruits set (Fuji apple variety [1]; concentration 0.2%): 6
Lateral flower-thinning rate (%) (Fuji apple variety [1]; concentration 0.2%): 68%
Total flower-thinning rate (%) (Fuji apple variety [1]; concentration 0.2%): 48%
Number of central fruits set (Fuji apple variety [1]; concentration 1%): 3
Total number of fruits set (Fuji apple variety [1]; concentration 1%): 4
Number of lateral fruits set (Fuji apple variety [1]; concentration 1%): 1
Lateral flower-thinning rate (%) (Fuji apple variety [1]; concentration 1%): 95%
Total flower-thinning rate (%) (Fuji apple variety [1]; concentration 1%): 84%
Efficacy (in words) (Fuji apple variety [1]; concentration of 1% (V/V)): sufficient efficacy
Flower-thinning contribution rate in IAP-108 (Fuji apple variety [1]): 27.2%
Lethality (%) (honeybees [3]; treatment dose 100 μg): 50%
Lethality (%) (honeybees [4]; [5]): 50%

CCCCCCCCCC(=O)O [1-decanoic acid, reference compound]
Lethality (%) (honeybees [4]; [5]): 90%

CCCCCC(=O)O [1-hexanoic acid, reference compound]
Lethality (%) (honeybees [4]; [5]): 30.0%

CCCCCCCC(=O)O [1-octanoic acid, reference compound]
Lethality (%) (honeybees [4]; [5]): 60%

CCCCCCCC/C=C\CCCCCCCCO [Oleyl alcohol, oleyl alcohol]
Lateral flower-thinning rate (%) (Fuji apple variety [1]; concentration 0.1%): 16%
Lethality (%) (honeybees [4]; [5]): 20%
